In brackets after ≈: the same amount, converted by molar mass. Ends that are not written are not given here.
What was measured:
[1] = system: C. albicans (ATCC 64549); assay: microbe, parasite or virus in culture
Experimental: (§1) In the examples, the minimal microbicidal concentrations (MMC) and minimal inhibitory concentrations (MIC) were determined as follows, unless otherwise specified in the examples. Bacterial or fungal strains were cultured in BHI medium over night at 37° C. A volume of the culture was transferred to a new tube with BHI and incubated for two more hours. Thereafter the cells were spun down and the pellet was suspended in BHI medium diluted 1/100 (1% BHI). The concentration of bacterial or fungal cells was spectrophotometrically determined at 650 nm. The microbial concentrations were also determined by viable counts. Peptides serially diluted in 1% BHI by twofold or tenfold steps were added in triplicate to the wells of a microtiterplate (200 μl per well). The bacterial or fungal cell solutions were added in 10 μl volumes to give a final concentration of approximately 1-5×10^5 cells per ml in the well. The microplate was incubated at 37° C. in a humid chamber for two hours. Thereafter 5 μl was taken from each well and added as a drop onto a blood agar plate and incubated over night at 37° C. The microplate was incubated for another 20 hours at 37° C. and thereafter analysed spectrophotometrically at 650 nm in a microplate reader (Emax, Molecular Devices, USA). The concentration of peptide causing a 99% reduction of the inoculum after 2 hours of incubation was defined as the MMC99%. The MIC value was defined as the concentration giving no increase in the absorbance value above the background level after 20 hours of incubation.
In this example the fungicidal activity of one of the peptides according to the invention, the peptide with SEQ. ID. NO. 7, was compared to the conventional antifungal agents flucytosine and fluconazole, and also to human lactoferrin (hLF). The antifungal agents were tested on C. albicans (ATCC 64549) in a concentration of 2×10^5 cells/ml. The tests were performed in BHI medium diluted 1/100.

[2] = system: E. coli O6K5; assay: microbicidal activity MMC99%, E. coli O6K5 (Example 28); assay type: cell-based; details: E. coli O6K5 (Table 24)
Experimental: as §1
(§2) In this example the microbicidal activity of eight of the peptides according to the invention was studied, and tested against E. coli O6K5 and C. albicans.
(§3) The concentration of each peptide needed to kill 99% of the microorganisms (MMC99%) was determined.

[3] = system: E. coli; assay: MMC99% of modified peptides, E. coli (Example 26); assay type: cell-based; details: BHI diluted 1/100, pH approximately 6.7-6.9 (Table 22)
Experimental: as §1
(§4) In this example the fungicidal, and bactericidal effects of the different peptides obtained in example 22 were studied. C. albicans, E. coli and S. aureus, respectively, were incubated in BHI medium diluted 1/100, with a pH of approximately 6.7-6.9. The concentration of each peptide needed to kill 99% of the microorganisms (MMC99%) was determined.

[4] = system: C. albicans; assay: MMC99% of modified peptides, C. albicans (Example 26); assay type: cell-based; details: BHI diluted 1/100, pH approximately 6.7-6.9 (Table 22)
Experimental: as §1, §4

[5] = system: C. albicans; assay: microbicidal activity MMC99%, C. albicans (Example 28); assay type: cell-based; details: C. albicans (Table 24)
Experimental: as §1, §2, §3

[6] = system: S. aureus; assay: MMC99% of modified peptides, S. aureus (Example 26); assay type: cell-based; details: BHI diluted 1/100, pH approximately 6.7-6.9 (Table 22)
Experimental: as §1, §4

[7] = system: C. albicans; assay: microbe, parasite or virus in culture; assay type: cell-based; details: C. albicans, BHI diluted 1/100, twofold dilutions from 20 μg/ml
Experimental: as §1
Also in this example one of the peptides according to the invention—this time the peptide with SEQ. ID. NO. 4, was compared to a conventional fungicide, amphotericin. The antifungal activity against C. albicans was studied. Twofold serial dilutions with a starting concentration of 20 μg/ml were used. BHI diluted 1/100 was used as growth medium.

[8] = system: E. coli O14; assay: bactericidal activity against E. coli O14, comparison with EP-A-0 629 347 peptides (Example 7); assay type: cell-based
Experimental: (§5) In this example an in vitro test was performed to compare the bactericidal and fungicidal activity of the peptides according to the invention with peptides described in EP-A-0 629 347. The peptide according to the invention used was peptide 4, and the peptides according to EP-A-0 629 347 called Morinaga 10, Morinaga 11, Morinaga 12, and Morinaga 13.
(§6) The peptides were incubated with E. coli O14 and Candida albicans. Two concentrations of C. albicans yeast cells were tested, 5·10^6 and 5·10^3 per ml. Different concentrations of the peptides were tested.
(§7) After the incubation, samples were taken for bacterial plating. Serial dilutions of tenfold steps were used in the experiments marked with I in table 5 and of twofold steps in the experiments marked with II.

[9] = system: Candida albicans; assay: fungicidal activity against Candida albicans, comparison with EP-A-0 629 347 peptides (Example 7); assay type: cell-based; details: C. albicans, I (tenfold steps)
Experimental: as §5, §6, §7

[10] = system: P. aeruginosa; assay: killing of bacteria at fixed peptide concentration, P. aeruginosa (Example 12); assay type: cell-based; details: peptide 25 μg/ml
Experimental: (§8) In this example, the peptides according to the invention were used to study the effect on the killing of different bacteria.
(§9) The peptides were used at a concentration of 25 μg/ml.

[11] = system: C. albicans (ATCC64549); assay type: cell-based
Experimental: as §1
(§10) C. albicans (ATCC64549) and E. coli O6, respectively, were incubated with the different peptides. The experiments were performed with 1, 10, 25 and 100 μg/ml of peptide.

[12] = system: E. coli O6; assay type: cell-based
Experimental: as §1, §10

[13] = system: S. aureus; assay: killing of bacteria at fixed peptide concentration, S. aureus (Example 12); assay type: cell-based; details: peptide 25 μg/ml
Experimental: as §8, §9

[14] = system: K. pneumoniae; assay: killing of bacteria at fixed peptide concentration, K. pneumoniae (Example 12); assay type: cell-based; details: peptide 25 μg/ml
Experimental: as §8, §9

[15] = system: S. epidermis; assay: killing of bacteria at fixed peptide concentration, S. epidermis (Example 12); assay type: cell-based; details: peptide 25 μg/ml
Experimental: as §8, §9

[16] = system: E. faecalis; assay: killing of bacteria at fixed peptide concentration, E. faecalis (Example 12); assay type: cell-based; details: peptide 25 μg/ml
Experimental: as §8, §9

[17] = system: multiresistant S. aureus; assay: bactericidal activity, multiresistant S. aureus (Example 18); assay type: cell-based; details: multiresistant S. aureus 5.0×10^5 per ml
Experimental: In this example the bactericidal activity of two of the peptides according to the invention was studied in a test with a multiresistant S. aureus. A bacterial solution with a concentration of 5.0×10^5 S. aureus bacterial per ml was used. The concentration of each peptide needed to kill 99% of the bacteria (MMC99%) was determined after 2 hours and after 24 hours of incubation at 37° C.

[18] = system: C. albicans yeast cells (ATCC64549); assay: killing and growth inhibition of C. albicans at pH 4.5 (Example 11); assay type: cell-based; parameters: key to C. albicans inhibition (OD650): + = no increase in OD650 is seen; − = OD650 continues to increase; details: pH 4.5, 1% BHI, 25 μg/ml of the peptide
Experimental: C. albicans yeast cells (ATCC64549) were incubated for 2 hours at pH 4.5 in BHI medium diluted to 1% of the original concentration containing 25 µg/ml of the peptide. Thereafter the fungal solutions were cultured on blood agar plates. OD650 was measured after incubation during an additional 18 hours. The fungicidal effect of the peptides on C. albicans was determined as the ability of the peptide to kill 100% and 99%, respectively, of the fungus, while the growth inhibitory effect was determined by measuring the OD650. An inhibitory effect existed when no increase in OD650 was recorded.

[19] = E. coli O14, I: serial dilutions of tenfold steps

Nc1[nH]c(=O)ncc1F [Flucytosine, flucytosine, reference compound]
MMC99% ([1]; C. albicans ATCC 64549, 2×10^5 cells/ml, BHI diluted 1/100): >500 µg/mL
MIC ([1]; Candida albicans, ATCC64549): 250 µg/mL (≈ 1940 µM)

C-F-A-W-K-R-N-M-R-K-V-R (CFAWKRNMRKVR) [SEQ. ID. NO. 93]
MMC99% [2]: 5
MMC99% [3]: 6
MMC99% [4]: 12
MMC99% [5]: 5
MMC99% [6]: 6

C-F-A-W-Q-R-A-M-R-K-V-R (CFAWQRAMRKVR) [SEQ. ID. NO. 94]
MMC99% [3]: 6
MMC99% [4]: 12
MMC99% [6]: 6

C[C@@H]1[C@H](O)[C@@H](C)/C=C/C=C/C=C/C=C/C=C/C=C/C=C/[C@H](O[C@@H]2O[C@H](C)[C@@H](O)[C@H](N)[C@@H]2O)C[C@@H]2O[C@](O)(C[C@@H](O)C[C@@H](O)[C@H](O)CC[C@@H](O)C[C@@H](O)CC(=O)O[C@H]1C)C[C@H](O)[C@H]2C(=O)O [Amphotericin, amphotericin, reference compound]
MMC99% [7]: 2.5 µg/mL
MIC ([7]; Candida albicans, read-out: MIC): 0.6 µg/mL (≈ 0.649 µM)

F-Q-W-Q-R-N (FQWQRN) [Morinaga 10]
Concentration of agent for 100% killing [8, 19]: >500 µg/mL
Concentration of agent for 100% killing ([8]; E. coli O14, II: serial dilutions of twofold steps): 1000 µg/mL
Concentration of agent for 100% killing ([9]; 5 · 10^3 yeast cells per ml): >2000 µg/mL
Concentration of agent for 100% killing ([9]; 5 · 10^6 yeast cells per ml): >2000 µg/mL

W-Q-R [Morinaga 13]
Concentration of agent for 100% killing [8, 19]: >500 µg/mL
Concentration of agent for 100% killing ([9]; 5 · 10^3 yeast cells per ml): >2000 µg/mL
Concentration of agent for 100% killing ([9]; 5 · 10^6 yeast cells per ml): >2000 µg/mL

KCFQWQRNMRKVR [Peptide 48]
killing of bacteria: P. aeruginosa [10]: + (+ = 99% of the bacteria are killed)
MIC ([11]; ATCC64549): 10 µg/mL
MMC99% ([11]; C. albicans, tested at 1, 10, 25 and 100 μg/ml of peptide): 10 µg/mL
MMC99% ([12]; E. coli O6, tested at 1, 10, 25 and 100 μg/ml of peptide): 10 µg/mL
MIC ([12]; O6): 10 µg/mL
killing of bacteria: S. aureus [13]: + (+ = 99% of the bacteria are killed)
killing of bacteria: K. pneumoniae [14]: + (+ = 99% of the bacteria are killed)
killing of bacteria: S. epidermis [15]: + (+ = 99% of the bacteria are killed)
killing of bacteria: E. faecalis [16]: + (+ = 99% of the bacteria are killed)
MMC99% ([17]; 2 hours at 37° C.): 5.0 µg/mL
MMC99% ([17]; 24 hours at 37° C.): ≦0.32 μg/ml
C. albicans inhibition (OD650) ([18]; OD650 after an additional 18 hours): +
C. albicans killing: 99% ([18]; 2 hours): + (+ = 100/99% of the bacteria are killed)
C. albicans killing: 100% ([18]; 2 hours): + (+ = 100/99% of the bacteria are killed)

Q-W-Q-R [Morinaga 12]
Concentration of agent for 100% killing [8, 19]: >500 µg/mL
Concentration of agent for 100% killing ([9]; 5 · 10^3 yeast cells per ml): >2000 µg/mL
Concentration of agent for 100% killing ([9]; 5 · 10^6 yeast cells per ml): >2000 µg/mL
